Measurements taken from PMC10587126, “Molecular hybridization strategy for tuning bioactive peptide function” (Communications Biology, 2023).
Read-outs that look alike come from different tables or passages of the source. No end group written: not given here.

Legend:
human erythrocytes [1] = experiment: Hemolytic activity; format: cell-based; details: 0.1–100 μmol L^−1 in PBS, room temperature, 1 h, absorbance 405 nm
Description: Assays against freshly collected human erythrocytes were performed following protocols described by Pedron et al.[54]. Briefly, peptide aliquots at concentrations ranging from 0.1 to 100 μmol L^−1 were incubated with a suspension of erythrocytes at room temperature for 1 h. The samples were then centrifuged, and the absorbance of the supernatant was measured at 405 nm. […] The surfactant SDS and PBS buffer were used as positive[81],[82] and negative controls, respectively. Sodium heparin was used as an anticoagulant when collecting human blood. Three biological repeats were performed. All experiments were performed in accordance with the protocol CEUA/IB #I-1345/15 approved by the Instituto Butantan.

[2] = Resistance to proteolytic degradation in fetal bovine serum; format: in vitro ADME; details: 25% fetal bovine serum in water, 37 °C
Description: Stability assays were performed following the protocol described by Torres et al.[67]. Briefly, a peptide solution was added to GIBCO fetal bovine serum diluted to 25% in water and kept at 37 °C. The degradation kinetics were monitored by liquid chromatography and the percentage of peptide remaining in each case was calculated by integrating the peptide peak area. These experiments were performed as three independent replicates, and aliquots were taken at 0, 0.5, 1, 2, 4, and 6 h.

[3] = Mouse body weight in the skin abscess infection model; format: in vivo
Description: The anti-infective activity of the peptides VmCT1, temporin A, VT, and TV against A. baumannii ATCC 19606 was evaluated as described by Torres et al.[7],[83] Bacteria were grown in tryptic soy broth medium to an optical density of 0.5 at 600 nm. Cells were washed twice with sterile phosphate-buffered saline (pH 7.4, 13,000 rpm for 1 min) and resuspended to a final concentration of 1 × 10^7 CFU/20 μL. To generate the skin infection, female CD-1 mice (6-weeks-old) were first anesthetized with isoflurane and their backs were shaved. Using a needle, a superficial linear abrasion was made on the shaved area of the mice to injure just the stratum corneum and the upper layer of the epidermis. An aliquot of 20 μL containing 1 × 10^7 CFU of A. baumannii was then inoculated over the wound area with a pipette tip. The next day, the infected area was treated with the peptides (i.e., VmCT1, temporin A, VT, and TV), which were administered onto the abscess at their MIC. The animals were euthanized, and the scarified skin area removed 2- and 4-days post-infection. The excised area was homogenized using a bead beater for 20 min (25 Hz) and serially diluted for CFU quantification. Eight mice were used per group (n = 8). All experiments were performed in accordance with protocol 806763 approved by the IACUC at the University of Pennsylvania.

[4] = Skin tissue histopathological analysis (H&E); format: in vivo, mouse; details: H&E staining, tissue collected 24 h after infection and treatment, three mice per condition
Description: The fur on the back of the mice was removed and the mice were infected and treated as described in the Skin abscess infection mouse model section. After 24 h, mice were euthanized for tissue collection. Samples were pre-fixed in individual cassettes, then transferred to a container filled with 70% ethanol (EtOH) for slicing and staining. Next, the samples were placed on glass slides for microscopy analysis. We collected the tissue from three mice per condition analyzed.

human erythrocytes [5] = details: at 100 µmol L^−1; cited from earlier work
Text: These observations are consistent with our results for PV, which incorporated protonectin’s hydrophobic face (Fig. 2) displaying increased antimicrobial activity than VP (Fig. 3). Additi ...

[6] = LC peak area, time 0 = 100, 0.5 h, replicate 1
[7] = LC peak area, time 0 = 100, 0.5 h, replicate 2
[8] = LC peak area, time 0 = 100, 0.5 h, replicate 3
[9] = LC peak area, time 0 = 100, 1 h, replicate 1
[10] = LC peak area, time 0 = 100, 1 h, replicate 2
[11] = LC peak area, time 0 = 100, 1 h, replicate 3
[12] = LC peak area, time 0 = 100, 2 h, replicate 1
[13] = LC peak area, time 0 = 100, 2 h, replicate 2
[14] = LC peak area, time 0 = 100, 2 h, replicate 3
[15] = LC peak area, time 0 = 100, 4 h, replicate 1
[16] = LC peak area, time 0 = 100, 4 h, replicate 2
[17] = LC peak area, time 0 = 100, 6 h, replicate 1
[18] = LC peak area, time 0 = 100, 6 h, replicate 2
[19] = LC peak area, time 0 = 100, 6 h, replicate 3
[20] = day 0 = 100, Day 1, replicate 1
[21] = day 0 = 100, Day 1, replicate 2
[22] = day 0 = 100, Day 1, replicate 3
[23] = day 0 = 100, Day 2, replicate 1
[24] = day 0 = 100, Day 2, replicate 2
[25] = day 0 = 100, Day 2, replicate 3
[26] = day 0 = 100, Day 3, replicate 1
[27] = day 0 = 100, Day 3, replicate 2
[28] = day 0 = 100, Day 3, replicate 3
[29] = day 0 = 100, Day 4, replicate 1
[30] = day 0 = 100, Day 4, replicate 2
[31] = day 0 = 100, Day 4, replicate 3
[32] = LC peak area, time 0 = 100, 4 h, replicate 3

Substance	Hemolytic activity (concentration of peptide needed to kill 10% of red blood cells) (human erythrocytes [1]) [µmol/L]	Peptide remaining [2, 6]	Peptide remaining [2, 7]	Peptide remaining [2, 8]	Peptide remaining [2, 9]	Peptide remaining [2, 10]	Peptide remaining [2, 11]	Peptide remaining [2, 12]	Peptide remaining [2, 13]	Peptide remaining [2, 14]	Peptide remaining [2, 15]	Peptide remaining [2, 16]	Peptide remaining [2, 17]	Peptide remaining [2, 18]	Peptide remaining [2, 19]	Mouse body weight, normalized to the weight at the beginning of the experiment [3, 20]	Mouse body weight, normalized to the weight at the beginning of the experiment [3, 21]	Mouse body weight, normalized to the weight at the beginning of the experiment [3, 22]	Mouse body weight, normalized to the weight at the beginning of the experiment [3, 23]	Mouse body weight, normalized to the weight at the beginning of the experiment [3, 24]	further results
FLGAIGNVLKSIL-NH2 [TV]	0.2	0	0	0	0	0	0	0	0	0	0	0	0	0	0	90	90	100	90	95	Peptide remaining after 30 min ([2]; LC peak area vs time 0, 30 min, three replicates): totally degraded; remaining at 4 h ([2]; fetal bovine serum, 25% in water, LC peak area, time 0 = 100, 4 h, replicate 3, read-out: Peptide remaining): 0%; Mouse body weight, normalized to the weight at the beginning of the experiment [3, 25]: 100; Mouse body weight, normalized to the weight at the beginning of the experiment [3, 26]: 90; Mouse body weight, normalized to the weight at the beginning of the experiment [3, 27]: 95; Mouse body weight, normalized to the weight at the beginning of the experiment [3, 28]: 105; Mouse body weight, normalized to the weight at the beginning of the experiment [3, 29]: 85; Mouse body weight, normalized to the weight at the beginning of the experiment [3, 30]: 95; Mouse body weight, normalized to the weight at the beginning of the experiment [3, 31]: 100; Histopathological effect on skin tissue (in words) [4]: Neither TV nor VmCT1 changed the tissue’s morphology
FLGALWNVAKSVF-NH2 [VmCT1, reference compound]	–	28.5	24.4	26.5	6.3	8.5	7.4	10.5	13.9	11.9	0.0	0.0	0.0	0.0	0.0	90	100	105	90	95	Peptide remaining [2, 32]: 0.0; Mouse body weight, normalized to the weight at the beginning of the experiment [3, 25]: 100; Mouse body weight, normalized to the weight at the beginning of the experiment [3, 26]: 95; Mouse body weight, normalized to the weight at the beginning of the experiment [3, 27]: 100; Mouse body weight, normalized to the weight at the beginning of the experiment [3, 28]: 105; Mouse body weight, normalized to the weight at the beginning of the experiment [3, 29]: 90; Mouse body weight, normalized to the weight at the beginning of the experiment [3, 30]: 100; Mouse body weight, normalized to the weight at the beginning of the experiment [3, 31]: 100; Histopathological effect on skin tissue (in words) [4]: Neither TV nor VmCT1 changed the tissue’s morphology
SLLSLIRKLIT-NH2 [Decoralin, reference compound]	1.6	–	–	0.0	–	–	0.0	–	–	0.0	0.0	0.0	0.0	0.0	0.0	–	–	–	–	–	Peptide remaining [2, 32]: 0.0; remaining at 0.5 h ([2]; fetal bovine serum, 25% in water, LC peak area, time 0 = 100, 0.5 h, replicate 1, read-out: Peptide remaining): 71%; remaining at 0.5 h ([2]; fetal bovine serum, 25% in water, LC peak area, time 0 = 100, 0.5 h, replicate 2, read-out: Peptide remaining): 65%; remaining at 1 h ([2]; fetal bovine serum, 25% in water, LC peak area, time 0 = 100, 1 h, replicate 1, read-out: Peptide remaining): 26%; remaining at 1 h ([2]; fetal bovine serum, 25% in water, LC peak area, time 0 = 100, 1 h, replicate 2, read-out: Peptide remaining): 23%; remaining at 2 h ([2]; fetal bovine serum, 25% in water, LC peak area, time 0 = 100, 2 h, replicate 1, read-out: Peptide remaining): 29%; remaining at 2 h ([2]; fetal bovine serum, 25% in water, LC peak area, time 0 = 100, 2 h, replicate 2, read-out: Peptide remaining): 23%; Hemolytic activity (in words) (human erythrocytes [5]): low hemolytic activity
